# Test results as given in patent US20220370384A1, “COMBINATIONS OF MEK INHIBITORS WITH CAP-DEPENDENT ENDONUCLEASE INHIBITORS” (priority 2019, published 2022).
# Key:
# Format in all cases: cell-based, influenza virus
# [1] = test system: rgA/Giessen/6/09 (H1N1-WT)
# [2] = test system: rgA/Victoria/3/75 (H3N2-WT)
# [3] = test system: wild type (wt) strain of A/Mississippi/3/2001 (H1N1)
smiles,measurement,setting,value
"O=C(O)c1ccc(F)c(F)c1Nc1ccc(I)cc1Cl [ATR002, 2-(2-chloro-4-iodophenylamino)-N-3,4-difluoro benzoic acid]",activity lower (than BLXM),[1],13%
same,antiviral activity,[2],revealed its potency against both variants
COC(=O)OCOc1c2n(ccc1=O)N([C@@H]1c3ccccc3SCc3c1ccc(F)c3F)[C@@H]1COCCN1C2=O [BLXM],reduction of the viral titer,[1],approximate complete reduction of the viral titer
O=C(NOCC1CC1)c1ccc(F)c(F)c1Nc1ccc(I)cc1Cl [CI-1040],antiviral effectiveness,[3],very effective
CCOC(=O)C1=C[C@@H](OC(CC)CC)[C@H](NC(C)=O)[C@@H](N)C1 [oseltamivir],antiviral effectiveness,[3],very effective
